Where no end group is shown, it is not given here.
Key:
[1] = tested on: PMN; assay: PMN viability by LDH release; conditions: concentrations that inhibited chemotaxis and oxidant production
Description: PMN viability after exposure to NIP (seq id no:1) or control peptide for varying amounts of time was assessed by measuring LDH release using a commercially available kit (Sigma).

[2] = tested on: PMN; conditions: pertussis toxin pretreatment of indo-loaded PMN
[3] = tested on: PMN; assay: fMLP-induced PMN calcium transients; type: cell-based, human; conditions: pertussis toxin pretreatment of indo-loaded PMN

Substance	cellular viability as determined by LDH release [1]	ionomycin-induced rise in cytosolic calcium [2]	rise in cytosolic calcium concentration induced by 1 μM fMLP [3]
REGSYFFGDNA [NIP, Arg-Glu-Gly-Ser-Tyr-Phe-Phe-Gly-Asp-Asn-Ala]	did not significantly alter cellular viability	–	–
pertussis toxin	–	no effect	Attenuation
